For 20 compounds, Kd results are on record in patent US20250388605A1, “HETEROBIFUNCTIONAL COMPOUNDS AND METHODS OF TREATING DISEASE” (Halda Therapeutics OpCo, Inc., priority 2022, published 2025).

In one experiment the target is T1, BRD4-BD1 (Homo sapiens, UniProt O60885).
T1 construct: made in house; host or cells: T7 phage grown in an E. coli host derived from the BL21 strain
Put plainly: Binding affinity to BRD4-BD1 (bromoKdELECT assay). The note with it: 11-point 3-fold dilution series. On the procedure: (§1) Compounds were tested using a bromoKdELECT assay. T7 phage strains displaying bromodomains were grown in parallel in 24-well blocks in an E. coli host derived from the BL21 strain. E. coli were grown to log-phase and infected with T7 phage from a frozen stock (multiplicity of infection=0.4) and incubated with shaking at 32° C. until lysis (90-150 minutes). The lysates were centrifuged (5,000×g) and filtered ([…]) to remove cell debris. Streptavidin-coated magnetic beads were treated with biotinylated small molecule or acetylated peptide ligands for 30 minutes at room temperature to generate affinity resins for bromodomain assays. The liganded beads were blocked with excess biotin and washed with blocking buffer (SeaBlock (Pierce), 1% BSA, 0.05% Tween 20, 1 mM DTT) to remove unbound ligand and to reduce nonspecific phage binding. Binding reactions were assembled by combining bromodomains, liganded affinity beads, and test compounds in 1× binding buffer (17% SeaBlock, 0.33×PBS, 0.04% Tween 20, 0.02% BSA, 0.004% Sodium azide, 7.4 mM DTT). Test compounds were prepared as 1000× stocks in 100% DMSO. Kds were determined using an 11-point 3-fold compound dilution series with one DMSO control point. All compounds for Kd measurements are distributed by acoustic transfer (non-contact dispensing) in 100% DMSO. The compounds were then diluted directly into the assays such that the final concentration of DMSO was 0.09%. All reactions performed in polypropylene 384-well plates. Each was a final volume of 0.02 ml. The assay plates were incubated at room temperature with shaking for 1 hour and the affinity beads were washed with wash buffer (1×PBS, 0.05% Tween 20). The beads were then resuspended in elution buffer (1×PBS, 0.05% Tween 20, 2 M non-biotinylated affinity ligand) and incubated at room temperature with shaking for 30 minutes. The bromodomain concentration in the eluates was measured by qPCR.

The next experiment addresses T2, BRD4-BD2 (Homo sapiens, UniProt O60885).
T2 construct: made in house; host or cells: T7 phage grown in an E. coli host derived from the BL21 strain
Put plainly: Binding affinity to BRD4-BD2 (bromoKdELECT assay). The note with it: 11-point 3-fold dilution series. On the procedure: as §1, with “2 μM” for “2 M”

Regarding `CN(CCCc1ccc(Oc2ccc(C(C)(C)O)cc2-c2cn(C)c(=O)c3[nH]ccc23)cc1)c1ncc(C(=O)N[C@H]2C(C)(C)[C@H](Oc3ccc(C#N)c(Cl)c3)C2(C)C)cn1` [Compound I-211], the results for the Kd at BRD4-BD1 and at BRD4-BD2 were greater than 2500 nM and 50 to 500 nM, respectively.

For `Cn1cc(-c2cc(C(C)(C)O)ccc2Oc2cccc(CCOC3CCN(c4ncc(C(=O)N[C@H]5C(C)(C)[C@H](Oc6ccc(C#N)c(Cl)c6)C5(C)C)cn4)CC3)c2)c2cc[nH]c2c1=O` [Compound I-193], the Kd on BRD4-BD1 was greater than 2500 nM; at BRD4-BD2, less than 50 nM.

In the case of `CN(c1ccc(Oc2cccc(N3CC(N4CCN(c5ncc(C(=O)N[C@H]6C(C)(C)[C@H](Oc7ccc(C#N)c(Cl)c7)C6(C)C)cn5)CC4)C3)c2F)c(-c2cn(C)c(=O)c3[nH]ccc23)c1)S(=O)(=O)C1CC1` [Compound I-91], the Kd on BRD4-BD1 was 50 to 500 nM; at BRD4-BD2 it was less than 50 nM.

Take `CCS(=O)(=O)Nc1ccc(Oc2cccc(OCCOC3CCN(c4ccc(C(=O)N[C@H]5C(C)(C)[C@H](Oc6ccc(C#N)c(Cl)c6)C5(C)C)nn4)CC3)c2)c(-c2cn(C)c(=O)c3[nH]ccc23)c1` [Compound I-11]: the Kd at BRD4-BD1 is 50 to 500 nM; at BRD4-BD2, less than 50 nM.

Turning to `CCS(=O)(=O)Cc1ccc(Oc2cccc(OCCOC3CCN(c4ncc(C(=O)N[C@H]5C(C)(C)[C@H](Oc6ccc(C#N)c(Cl)c6)C5(C)C)cn4)CC3)c2)c(-c2cn(C)c(=O)c3[nH]ccc23)c1` [Compound I-54, N-((1r, 3r)-3-(3-chloro-4-cyanophenoxy)-2,2,4,4-tetramethylcyclobutyl)-2-(4-(2-(3-(4-((ethylsulfonyl)methyl)-2-(6-methyl-7-oxo-6,7-dihydro-1H-pyrrolo[2,3-c]pyridin-4-yl)phenoxy)phenoxy)ethoxy)piperidin-1-yl)pyrimidine-5-carboxamide], the results for the Kd at BRD4-BD1 and at BRD4-BD2 were greater than 2500 nM and 50 to 500 nM, respectively.

For the compound `Cn1cc(-c2cc(C(C)(C)O)ccc2Oc2cccc(OCCN3CCN(c4ncc(C(=O)N[C@H]5C(C)(C)[C@H](Oc6ccc(C#N)c(Cl)c6)C5(C)C)cn4)CC3)c2F)c2cc[nH]c2c1=O` [Compound I-99], the values for the Kd on BRD4-BD1 and on BRD4-BD2 were 500 to 2500 nM and less than 50 nM, respectively.

Turning to `Cn1cc(-c2cc(N)ccc2Oc2cccc(OCCOC3CCN(c4ncc(C(=O)N[C@H]5C(C)(C)[C@H](Oc6ccc(C#N)c(Cl)c6)C5(C)C)cn4)CC3)c2)c2cc[nH]c2c1=O` [Compound I-62, 2-(4-(2-(3-(4-amino-2-(6-methyl-7-oxo-6,7-dihydro-1H-pyrrolo[2,3-c]pyridin-4-yl)phenoxy)phenoxy)ethoxy)piperidin-1-yl)-N-((1r, 3r)-3-(3-chloro-4-cyanophenoxy)-2,2,4,4-tetramethylcyclobutyl)pyrimidine-5-carboxamide], the Kd on BRD4-BD1 and at BRD4-BD2 was greater than 2500 nM in each case.

Consider `CCS(=O)(=O)Nc1ccc(Oc2cccc(N3CC(OC4CCN(c5ncc(C(=O)N[C@H]6C(C)(C)[C@H](Oc7ccc(C#N)c(Cl)c7)C6(C)C)cn5)CC4)C3)c2)c(-c2cn(C)c(=O)c3[nH]ccc23)c1` [Compound I-80], for which the Kd on BRD4-BD1 and on BRD4-BD2 was 50 to 500 nM throughout.

Take `CCS(=O)(=O)Nc1ccc(Oc2cccc(NCCOC3CCN(c4ncc(C(=O)N[C@H]5C(C)(C)[C@H](Oc6ccc(C#N)c(Cl)c6)C5(C)C)cn4)CC3)c2)c(-c2cn(C)c(=O)c3[nH]ccc23)c1` [Compound I-84]: the Kd at BRD4-BD1 and on BRD4-BD2 was less than 50 nM each time.

With `Cn1cc(-c2cc(C(C)(C)O)ccc2Oc2cccc(OCCC3CCN(c4ncc(C(=O)N[C@H]5C(C)(C)[C@H](Oc6ccc(C#N)c(Cl)c6)C5(C)C)cn4)CC3)c2F)c2cc[nH]c2c1=O` [Compound I-142], the Kd on BRD4-BD1 is greater than 2500 nM; at BRD4-BD2 it was 500 to 2500 nM.

Consider `Cn1cc(-c2cc(C(C)(C)O)ccc2Oc2cccc(CCCN3CCN(c4ncc(C(=O)N[C@H]5C(C)(C)[C@H](Oc6ccc(C#N)c(Cl)c6)C5(C)C)cn4)CC3)c2F)c2cc[nH]c2c1=O` [Compound I-143], for which the Kd was 50 to 500 nM at BRD4-BD1 and less than 50 nM on BRD4-BD2.

With `CCS(=O)(=O)Nc1ccc(Oc2cccc(N(C)C3CN(CC4CCN(c5ncc(C(=O)NC6C(C)(C)C(Oc7ccc(C#N)c(Cl)c7)C6(C)C)cn5)CC4)C3)c2)c(-c2cn(C)c(=O)c3[nH]ccc23)c1` (stereo not shown) [Compound I-39], the Kd on BRD4-BD1 and at BRD4-BD2 was less than 50 nM in each case.

For the compound `Cn1cc(-c2ccccc2Oc2cccc(OCCOC3CCN(c4ncc(C(=O)N[C@H]5C(C)(C)[C@H](Oc6ccc(C#N)c(Cl)c6)C5(C)C)cn4)CC3)c2)c2cc[nH]c2c1=O` [Compound I-61, N-((1r, 3r)-3-(3-chloro-4-cyanophenoxy)-2,2,4,4-tetramethylcyclobutyl)-2-(4-(2-(3-(2-(6-methyl-7-oxo-6,7-dihydro-1H-pyrrolo[2,3-c]pyridin-4-yl)phenoxy)phenoxy)ethoxy)piperidin-1-yl)pyrimidine-5-carboxamide], the Kd on BRD4-BD1 and on BRD4-BD2 was greater than 2500 nM throughout.

Regarding `CCS(=O)(=O)Nc1ccc(Oc2cccc(N3CC(N4CCN(c5ncc(C(=O)N[C@H]6C(C)(C)[C@H](Oc7ccc(C#N)c(Cl)c7)C6(C)C)cn5)CC4)C3)c2)c(-c2cn(C)c(=O)c3[nH]ccc23)c1` [Compound I-75], the Kd on BRD4-BD1 and at BRD4-BD2 was 50 to 500 nM throughout.

As for `CCS(=O)(=O)c1ccc(Oc2cccc(OCCOC3CCN(c4ccc(C(=O)N[C@H]5C(C)(C)[C@H](Oc6ccc(C#N)c(Cl)c6)C5(C)C)cn4)CC3)c2F)c(-c2cn(C)c(=O)c3[nH]ccc23)c1` [Compound I-185], the results for the Kd at BRD4-BD1 and on BRD4-BD2 were 50 to 500 nM and less than 50 nM, respectively.

Consider `CC(C)N(CC1CCN(c2ncc(C(=O)N[C@H]3C(C)(C)[C@H](Oc4ccc(C#N)c(Cl)c4)C3(C)C)cn2)CC1)[C@H]1C[C@H](Oc2cccc(Oc3ccc(C(C)(C)O)cc3-c3cn(C)c(=O)c4[nH]ccc34)c2F)C1` [Compound I-214], for which the Kd at BRD4-BD1 and on BRD4-BD2 was less than 50 nM in each case.

Consider `Cn1cc(-c2cc(C(C)(C)O)ccc2Oc2cccc(OCCN3CCN(c4ncc(C(=O)N[C@H]5C(C)(C)[C@H](Oc6ccc(C#N)c(Cl)c6)C5(C)C)cn4)CC3)c2)c2cc[nH]c2c1=O` [Compound I-96], for which the values for the Kd at BRD4-BD1 and on BRD4-BD2 were 500 to 2500 nM and 50 to 500 nM, respectively.

In the case of `CCS(=O)(=O)c1ccc(OCC(CCCN2CCN(c3ncc(C(=O)NC4C(C)(C)C(Oc5ccc(C#N)c(Cl)c5)C4(C)C)cn3)CC2)C2CC2)c(-c2cn(C)c(=O)c3[nH]ccc23)c1` (stereo not shown) [Compound I-231, N-[3-(3-chloro-4-cyano-phenoxy)-2,2,4,4-tetramethyl-cyclobutyl]-2-[4-[4-cyclopropyl-5-[4-ethylsulfonyl-2-(6-methyl-7-oxo-1H-pyrrolo[2,3-c]pyridin-4-yl)phenoxy]pentyl]piperazin-1-yl]pyrimidine-5-carboxamide], the Kd on BRD4-BD1 and on BRD4-BD2 was less than 50 nM in each case.

Regarding `CCS(=O)(=O)Nc1ccc(Oc2cccc(OCCOCCOC3CCN(c4ncc(C(=O)N[C@H]5C(C)(C)[C@H](Oc6ccc(C#N)c(Cl)c6)C5(C)C)cn4)CC3)c2)c(-c2cn(C)c(=O)c3[nH]ccc23)c1` [Compound I-13], the dissociation constant (Kd) is 500 to 2500 nM on BRD4-BD1 and less than 50 nM on BRD4-BD2.

On to `Cn1cc(-c2cc(C(C)(C)O)ccc2Oc2cccc(OCCC3CCN(c4ncc(C(=O)N[C@H]5C(C)(C)[C@H](Oc6ccc(C#N)c(Cl)c6)C5(C)C)cn4)CC3)c2)c2cc[nH]c2c1=O` [Compound I-156], for which the Kd at BRD4-BD1 was 500 to 2500 nM; at BRD4-BD2 it was 50 to 500 nM.
